{
  "source": "paper PMC7946963",
  "about": "“Phosphorylation regulates the binding of autophagy receptors to FIP200 Claw domain for selective autophagy initiation” (Nature Communications, 2021)",
  "key": {"[1]": {"tested_on": "FIP200 Claw (FIP200(1450–1594))", "assay": "Analytical gel filtration chromatography with FIP200 Claw", "format": "binding, human", "details": "for interaction of CCPG1 FIR2 variant with FIP200 Claw (in words): analytical gel filtration chromatography and fluorescence spectroscopy-based analyses, Supplementary Fig. 10; for interaction of Optineurin fragment with FIP200 (in words): analytical gel filtration chromatography with FIP200(1450–1594), Fig. 3b, c, Supplementary Fig. 15; for effect of point mutation in Optineurin(169–185) S177E on the interaction with FIP200 (in words): analytical gel filtration chromatography, Supplementary Fig. 16", "method": "(§1) Purified proteins were loaded on to a […] 10/300 GL column (GE Healthcare) equilibrated with a buffer containing 20 mM Tris-HCl (pH 7.9), 100 mM NaCl and 1 mM DTT. Analytical gel filtration chromatography was carried out on an AKTA FPLC system (GE Healthcare). The fitting results were further output to the Origin 8.5 software and aligned with each other."}, "[2]": {"tested_on": "all six mammalian ATG8 orthologues", "assay": "Analytical gel filtration chromatography, statement over all ATG8 orthologues", "format": "binding", "details": "qualitative analytical gel filtration chromatography; Supplementary Figs. 20 and 21", "method": "as §1"}, "[3]": {"target": "T1, FIP200 Claw domain (residues 1490–1594) (Homo sapiens, UniProt Q8TDY2)", "T1 construct": "N-terminal Trx-tag/His6-tag or His6-tag/SUMO-tag (vector for this fragment not specified) (N, cleaved yes); made in house; host or cells: E. coli BL21 (DE3)", "T1 sequence (Q8TDY2 1490-1594)": "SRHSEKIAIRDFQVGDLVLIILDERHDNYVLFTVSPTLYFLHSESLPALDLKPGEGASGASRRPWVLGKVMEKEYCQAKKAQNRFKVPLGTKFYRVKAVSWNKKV", "assay": "Fluorescence polarization (FP) binding assay, FITC-peptide titrated with FIP200 Claw", "details": "N-terminally FITC-labeled peptide (~0.25 μM) titrated with FIP200 Claw (residues 1490–1594), 20 mM Tris pH 7.9, 100 mM NaCl, 1 mM DTT, 25 °C, one-site binding model, performed in triplicate, read-out: Kd (fitted dissociation constant with standard error)", "experimental": "Fluorescence anisotropy binding assays were performed on the SpectraMax i3x Multi-Mode Detection Platform from Molecular Devices, using a 485 nm excitation filter and a 535 nm emission filter. Peptides were labeled with fluorescein isothiocyanate isomer I (Sigma-Aldrich) at their N-terminals. […] The Kd values were obtained by fitting the titration curves with the classical one-site binding model using GraphPad Prism 6 software."}, "[4]": {"tested_on": "different ATG8 proteins (LC3A, LC3B, LC3C, GABARAP, GABARAPL1, GABARAPL2)", "assay": "ITC-based measurements of ATG16L1 FIR with ATG8 proteins", "details": "one-site binding model, peer review file figure"}, "[5]": {"tested_on": "FIP200 Claw K1569A mutant", "assay": "Analytical gel filtration chromatography with FIP200 K1569A mutant", "format": "binding, human", "details": "Supplementary Fig. 16", "method": "as §1"}, "[6]": {"tested_on": "FIP200 Claw F1574Q mutant", "assay": "Analytical gel filtration chromatography with FIP200 F1574Q mutant", "format": "binding, human", "details": "Supplementary Fig. 16", "method": "as §1"}, "[7]": {"tested_on": "FIP200 Claw R1573E mutant", "assay": "Analytical gel filtration chromatography with FIP200 R1573E mutant", "format": "binding, human", "details": "Supplementary Fig. 16", "method": "as §1"}, "[8]": {"tested_on": "FIP200 Claw Y1564S mutant", "assay": "Analytical gel filtration chromatography with FIP200 Y1564S mutant", "format": "binding, human", "details": "Supplementary Fig. 16", "method": "as §1"}, "FIP200 Claw": {"tested_on": "FIP200 Claw", "details": "cited from earlier work", "from_the_text": "Previous studies have well established a critical role of the FIP200 subunit in the ULK complex for associating with other autophagic factors, especially some autophagy receptors such as CCPG1, NDP52, and P62[30],[49]–[51]."}},
  "note": "Peptide text beside a SMILES is read from it.",
  "data": [
    {"molecule": "D105A: D105A point mutant of CCPG1 FIR2 (TASDDSAIVTLEPPK)", "values": [
      {"measurement": "interaction of CCPG1 FIR2 variant with FIP200 Claw (in words)", "setting": "[1]", "result": "significantly decrease or essentially disrupt"}
    ]},
    {"molecule": "p-Optineurin(33–209): Optineurin(33–209) fragment phosphorylated in vitro by TBK1", "values": [
      {"measurement": "interaction of Optineurin fragment with FIP200 (in words)", "setting": "[1]", "result": "much stronger binding ability"}
    ]},
    {"molecule": "CCPG1 FIR2 S104E: recombinant phosphomimetic S104E mutant of CCPG1 FIR2 (residues 99–113) (TASDDEDIVTLEPPK)", "values": [
      {"measurement": "interaction of CCPG1 FIR2 variant with FIP200 Claw (in words)", "setting": "[1]", "result": "good abilities to interact"},
      {"measurement": "interaction with all six mammalian ATG8 orthologues (in words)", "setting": "[2]", "result": "can directly interact"}
    ]},
    {"molecule": "I106S: I106S point mutant of CCPG1 FIR2 (TASDDSDSVTLEPPK)", "values": [
      {"measurement": "interaction of CCPG1 FIR2 variant with FIP200 Claw (in words)", "setting": "[1]", "result": "significantly decrease or essentially disrupt"}
    ]},
    {"molecule": "L109A: L109A point mutant of CCPG1 FIR2 (TASDDSDIVTAEPPK)", "values": [
      {"measurement": "interaction of CCPG1 FIR2 variant with FIP200 Claw (in words)", "setting": "[1]", "result": "significantly decrease or essentially disrupt"}
    ]},
    {"molecule": "T108A: T108A point mutant of CCPG1 FIR2 (TASDDSDIVALEPPK)", "values": [
      {"measurement": "interaction of CCPG1 FIR2 variant with FIP200 Claw (in words)", "setting": "[1]", "result": "significantly decrease or essentially disrupt"}
    ]},
    {"molecule": "CC[C@H](C)[C@H](NC(=O)[C@H](CCC(=O)O)NC(=O)[C@@H](NC(=O)[C@H](Cc1ccccc1)NC(=O)[C@H](COP(=O)(O)O)NC(=O)[C@H](CC(=O)O)NC(=O)[C@H](CCC(=O)O)NC(=O)[C@H](CO)NC(=O)[C@@H](N)CO)C(C)C)C(=O)N[C@@H](CCCNC(=N)N)C(=O)N[C@@H](CCSC)C(=O)N[C@@H](C)C(=O)N[C@@H](CCC(=O)O)C(=O)O", "note": "[p-Optineurin LIR] (HELM PEPTIDE1{S.S.E.D.[O=C([C@H](COP(=O)(O)O)N[*:1])[*:2]].F.V.E.I.R.M.A.E}$$$$V2.0)", "values": [
      {"measurement": "Kd", "setting": "[3]", "result": "11.5 ± 1.74", "unit": "µM"}
    ]},
    {"molecule": "ATG16L1 FIR: ATG16L1 FIR (residues 235-247), FIP200-interacting region of ATG16L1 (EQDDDIEVIVDET; UniProt Q676U5 235-247, looked up, fragment)", "values": [
      {"measurement": "binding to different ATG8 proteins (in words)", "setting": "[4]", "result": "can directly bind"}
    ]},
    {"molecule": "F178Q: F178Q mutation of the phosphomimetic Optineurin(169–185) S177E mutant (NSSGSSEDEQVEIRMAE)", "values": [
      {"measurement": "effect of point mutation in Optineurin(169–185) S177E on the interaction with FIP200 (in words)", "setting": "[1]", "result": "significantly attenuate or completely abolish"}
    ]},
    {"molecule": "Optineurin(186–209): recombinant human Optineurin fragment, residues 186–209", "values": [
      {"measurement": "interaction of Optineurin fragment with FIP200 (in words)", "setting": "[1]", "result": "no obvious interactions"}
    ]},
    {"molecule": "Optineurin(169–185) S177E: recombinant phosphomimetic S177E mutant of Optineurin(169–185) that solely includes the LIR motif (NSSGSSEDEFVEIRMAE; UniProt Q96CV9 169-185, looked up, variant S177E)", "values": [
      {"measurement": "interaction with FIP200 K1569A mutant compared with wild type (in words)", "setting": "[5]", "result": "significantly attenuate or completely abolish"},
      {"measurement": "interaction with FIP200 F1574Q mutant compared with wild type (in words)", "setting": "[6]", "result": "significantly attenuate or completely abolish"},
      {"measurement": "interaction of Optineurin fragment with FIP200 (in words)", "setting": "[1]", "result": "can specifically interact"},
      {"measurement": "interaction with FIP200 R1573E mutant compared with wild type (in words)", "setting": "[7]", "result": "significantly attenuate or completely abolish"},
      {"measurement": "interaction with FIP200 Y1564S mutant compared with wild type (in words)", "setting": "[8]", "result": "significantly attenuate or completely abolish"}
    ]},
    {"molecule": "phosphomimetic quadruple mutations (S349D, S365D, S366D, and S370D) of P62: P62 with phosphomimetic S349D, S365D, S366D, S370D mutations, from ref 49", "values": [
      {"measurement": "enhancement of the binding affinity of P62 for FIP200 Claw by phosphomimetic mutations", "setting": "FIP200 Claw", "result": "roughly by twofold"}
    ]},
    {"molecule": "D176R: D176R mutation of the phosphomimetic Optineurin(169–185) S177E mutant (NSSGSSEREFVEIRMAE)", "values": [
      {"measurement": "effect of point mutation in Optineurin(169–185) S177E on the interaction with FIP200 (in words)", "setting": "[1]", "result": "significantly attenuate or completely abolish"}
    ]},
    {"molecule": "Optineurin(33–168): recombinant human Optineurin fragment, residues 33–168", "values": [
      {"measurement": "interaction of Optineurin fragment with FIP200 (in words)", "setting": "[1]", "result": "no obvious interactions"}
    ]}
  ]
}
